Test results taken from patent publication US20240316213A1, “ANTIBODY-PROTAMINE FUSIONS AS TARGETING COMPOUNDS OF A PROTAMINE-BASED NANOPARTICLE” (Universität Münster, priority 2021, published 2024).

Experiments:
[1] = Cell-free vesicle/nanoparticle formation on chamber slides, microscopy; type: physicochemical
Source text: Based upon these measurements, we hypothesized that the antibody-protamine/free SMCC-protamine/siRNA complexes form outside cells and independently of a cellular context. […]
In detail, the nanostructures resemble a spheroid shape of micrometre size, formed by the three components mAB-SMCC-protamine, unconjugated SMCC-protamine and the Alexa488-labeled siRNA (FIG. 37). The structures are verified by fluorescence microscopy and laser scan confocal microscopy. It became evident that the spheroid structures are completely filled with Alexa488 signals from the siRNA compound.

HBL-1 DLBCL-cells = assay: NSG-HBL1 xenograft model; type: in vivo; settings: after treatment start, groups of 10 mice
Protocol: A. Tumor growth and treatment regimen of the NSG-HBL1 xenograft model. After transplantation, tumors were grown to 200 mm^3, before treatment was started twice a week intraperitoneally (i.p.). […] On every treatment day, twice a week, tumor volumes were assessed by caliper measurements. […] C. Survival curves of the treatment versus control groups.

HBL-1 cells = assay: Colony formation assay, HBL-1; type: cell-based
Protocol: Next, we planned functional assays for identifying the effectivity of the antibody-inhibitor-complexes. DLBCL tumor cells were seeded in methylcellulose to form anchorage-free colony growth as a substitute marker for tumorigenicity. Assays were treated with combinations of antibody-inhibitor complexes and compared with appropriate control groups.
This colony-assay is used for quantification of anchorage-independent clonal cell growth and is a standard in vitro surrogate for tumorigenicity in vivo.

[2] = Bandshift assay, ibrutinib-Cy3.5 binding; settings: free protamine-SMCC present; listed as Not protamine-SMCC depleted αCD20-mAB-preparations
[3] = Bandshift assay, SM-1/RF binding; settings: free SMCC-protamine present; listed as Not SMCC-protamine depleted CD20-mAB-preparations
Source text: Subsequently, we performed the same experiments for the binding between SM-1/RF and two carrier systems, rituximab (CD20)-protamine and the reliable cetuximab (EGFR)-protamine.

siRNA = assay: Bandshift (electro-mobility shift) assay, siRNA binding; settings: preparation containing free SMCC-protamine
Protocol: We analysed the siRNA binding capacity of these different conjugations by our routine bandshift assays (FIG. 40A-F).
The principle of genetic fusion between cell-determining targeting moiety and the electrostatic siRNA binder protamine such as presented in Song et al. was evaluated by applying this strategy to in a variation to target e.g. leukemic blasts (FIG. 48). The well-known anti-CD33 receptor antibody gemtuzumab was expressed with (FIG. 51) and without a direct genetic fusion to protamine as a siRNA carrier.

Row | nanoparticle/vesicle formation, cell-free ([1]; listed as uncharged ibrutinib) | ibrutinib-Cy3.5 complexed per mol of carrier mAB [2] [mol] | SM-1/RF complexed per mol of carrier mAB [3] [mol] | siRNA bound per mol of antibody carrier (siRNA) [mol] | siRNA bound per mol of antibody carrier (siRNA; listed as Anti-CD20 mAB conjugated to SMCC-protamine) | siRNA bound per mol of antibody carrier (siRNA; listed as rituximab-protamine) | Compound | day by which all/last mice had to be sacrificed (HBL-1 DLBCL-cells) [days] | colony formation (HBL-1 cells) | Microscopic analysis [1]
1 | not with uncharged ibrutinib | – | – | – | – | – | C=CC(=O)N1CCC[C@@H](n2nc(-c3ccc(Oc4ccccc4)cc3)c3c(N)ncnc32)C1 [ibrutinib, 1-[(3R)-3-[4-amino-3-(4-phenoxyphenyl)pyrazolo[3,4-d]pyrimidin-1-yl]piperidin-1-yl]prop-2-en-1-one] | 20 | much lesser degree | –
2 | – | > 32 | > 32 | 8 | around 16 mol | about 8 mol | CD20-mAB rituximab-protamine/P conjugates: anti-CD20 antibody rituximab conjugated via sulfo-SMCC to protamine, containing free SMCC-protamine | – | – | No visible
3 | – | – | – | – | – | – | rituximab: anti-CD20 antibody | ≤ 16 | only a mild effect on colony growth | –
